From patent US20250276995A1, “PRODUCTION METHOD FOR PEPTIDE COMPOUND” (CHUGAI SEIYAKU KABUSHIKI KAISHA, priority 2022, published 2025) come the findings set out here.

The nature of the series: Verification of solubility of carbodiimide-derived urea in NMP and DMF. Format: physicochemical. The conditions noted are these: for Re-precipitation: 0.77 M, after 24 hours or more. An excerpt:
The concentration of carbodiimide at the time of preactivation performed in the elongation steps of Reference Example 2-3 and Examples 2-4 and 2-5 was 0.77 mol/L. To confirm the risk of precipitation in case that all carbodiimide is converted to urea, the solubility in NMP and DMF was confirmed according to the following procedure, using the DIC-derived urea with which precipitates were confirmed in Reference Examples 2-3 and the DsBC-derived urea with which no precipitates were confirmed in Examples 2-4 and 2-5.
Into 1.5 mL vials with a screw cap, DIC urea (compound SS05) and DsBC urea (compound SS06) synthesized in Example 1-3 were weighed and placed as described in Table 11, and NMP or DMF was added to be each concentration. The mixture was stirred at room temperature for 5 minutes or more, and then allowed to stand to confirm whether the urea was dissolved or not. […]

[1] abbreviates: solvent DMF, concentration 0.77 M (0.77 mol/L), room temperature.
Where [2] appears, read: solvent NMP, concentration 0.77 M (0.77 mol/L), room temperature.

Regarding `CCC(C)NC(=O)NC(C)CC` (stereo not shown) [SS06, 1,3-di-sec-butylurea], the Re-precipitation result is, setting by setting: (DMF) “no re-precipitation was confirmed”; (NMP) “no re-precipitation was confirmed”. For the same molecule, the Dissolved or not result runs as follows: under setting [1], “completely dissolved”; (solvent DMF, concentration 0.77 M (0.77 mol/L), room temperature, listed as DsBC Urea (SS06)) “dissolved”; under setting [2], “completely dissolved”; (solvent NMP, concentration 0.77 M (0.77 mol/L), room temperature, listed as DsBC Urea (SS06)) “dissolved”.
Take `CCNC(=O)NC(C)(C)C` [SS07, 1-(tert-butyl)-3-ethylurea]: the Re-precipitation result is given as “no re-precipitation was confirmed” (DMF) and “no re-precipitation was confirmed” (NMP). Also, the Dissolved or not entry under setting [1] is “completely dissolved” and the Dissolved or not entry under setting [2] is “completely dissolved”.
As for `CC(C)NC(=O)NC(C)C` [SS05, 1,3-Diisopropylurea], the Dissolved or not entry by setting is: (in DMF at 0.17 M or more) “not fully dissolved”; (in NMP at a concentration of 0.34 M or more) “not fully dissolved”; (solvent DMF, concentration 0.17 M, room temperature) “not fully dissolved”; (solvent DMF, concentration 0.34 M, room temperature) “not fully dissolved”; (solvent DMF, concentration 0.38 M, room temperature) “not fully dissolved”; (solvent DMF, concentration 0.51 M, room temperature) “not fully dissolved”. Besides, the Dissolved or not result reads like this: under setting [1], “not fully dissolved”; (solvent NMP, concentration 0.17 M, room temperature, stirred 5 minutes or more then allowed to stand) “dissolved”; (solvent NMP, concentration 0.34 M, room temperature) “not fully dissolved”; (solvent NMP, concentration 0.38 M, room temperature) “not fully dissolved”; (solvent NMP, concentration 0.51 M, room temperature) “not fully dissolved”; under setting [2], “not fully dissolved”.
